# Assay results: article PMC2866172 (Journal of medicinal chemistry, 2010)
# Like-named read-outs stand apart in the source and are kept apart here.
# What was measured:
# [1] = patients, 150 mg oral dose, cited from earlier work
# in vitro = conditions: monkey, plasma
# [2] = monkeys, 6 h after i.v. administration of [14C]RIF; cited from earlier work
# [3] = PPB determination in pooled baboon plasma; conditions: monkey, pooled plasma
# [4] = humans, cited from earlier work
# [5] = about 3 h after i.v. administration of 108.7 mg INH, [14C]INH tracer; cited from earlier work
# [6] = mice, [14C]INH, 10 mg/kg s.c., cited from earlier work
SMILES,RIF bile concentration ([1]; 3–5 h),RIF concentration in the liver [1],fraction unbound at 10 min (in vitro),RIF concentration in heart [2],RIF concentration in kidney [2],RIF concentration in liver [2],RIF concentration in lung [2],fraction unbound at 10 min [3],"INH CSF concentration ([4]; 8.5 mg/kg oral dose, 2 h)","INH CSF concentration ([4]; 108.7 mg oral dose, 1 h)",INH concentration in surgically removed normal human lung [5],INH concentration in brain ([6]; 30 min),INH concentration in brain ([6]; 60 min)
"CO[C@H]1/C=C/O[C@@]2(C)Oc3c(C)c(O)c4c(O)c(c(/C=N/N5CCN(C)CC5)c(O)c4c3C2=O)NC(=O)/C(C)=C\C=C\[C@H](C)[C@H](O)[C@@H](C)[C@@H](O)[C@@H](C)[C@H](OC(C)=O)[C@@H]1C [RIF, rifampicin]",up to 538.5 µg/ml,22 to 35 µg/mL,0.273,10.11 µg/g,14.69 µg/g,60.41 µg/g,8.32 µg/g,–,–,–,–,–,–
"NNC(=O)c1ccncc1 [INH, isoniazid]",–,–,–,–,–,–,–,0.946,1.9 µg/mL,0.31 µg/mL,1.79 µg/g,4.4 µg/g,3.2 µg/g
